This note sets out measurements from publication PMC7539012, “Hyperphosphorylated tau aggregation and cytotoxicity modulators screen identified prescription drugs linked to Alzheimer's disease and cognitive functions” (Scientific Reports, 2020).

Counter-ions that a name gives are not always drawn. Like-named read-outs stand apart in the source and are kept apart here. *1 amine or outer side, *2 acyl side, *3 side chain or, on linkers, in order; H or OH if unused. Where a SMILES comes first, the peptide text is derived from it. Bridges are numbered along the chain shown (N, C = ends). [ ]: non-standard residue; d: D form. The star is where a group is joined. X1 = NC1=N[C@@H](O)C[C@H]([C@H](N[*:1])C(=O)[*:2])N1; ΔAla(Z-3-ureido) = NC(=O)N/C=C(\N)C(=O)O; β3hOrn = NCCC[C@H](N)CC(=O)*; Dap = NC[C@H](N)C(=O)O

The test system of the assay is T1, 1N4R p-tau.
T1 construct: made in house; host or cells: E. coli (PIMAX system)
The experiment in a line: p-tau aggregation modulator screen of 1280-compound library (ThS fluorescence net change over 16 h).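 For ThS net change: 30 µM compound with 6 µM p-tau over 16 h.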 Also on record: key to PTAI>2SD: *: PTAI>2SD; key to PTAI>3SD: *: PTAI>3SD. The assay is classed as biochemical.

[1] abbreviates: 1280-compound library screen, ThS fluorescence net change over 16 h.
Where [2] appears, read: p-tau aggregation modulator screen of 1280-compound library, ThS fluorescence net change.
[3] abbreviates: library screen, ThS fluorescence net change over 16 h with p-tau.
[4] abbreviates: p-tau aggregation modulator screen of the compound library, ThS fluorescence net change.
Setting [5] is: p-tau aggregation modulator screen of 1280-compound library, […].
The mark [6] stands for this setting: 1280-compound library screen, […].

Take `O=C([O-])CCNC(=O)c1ccc(/N=N/c2ccc(O)c(C(=O)[O-])c2)cc1.[Na+].[Na+]` [Balsalazide Sodium]: the ThS net change under setting [1] is reported as 399. As for `COc1cc(OC)c(C(=O)CCCN2CCCC2)c(OC)c1.Cl` [Buflomedil hydrochloride], the ThS net change under setting [2] was found to be 363. `Cl.Clc1ccc(Cn2c(CN3CCCC3)nc3ccccc32)cc1` [Clemizole hydrochloride] gave a ThS net change under setting [3] of 325. Regarding `CN(C)C/C=C(\c1ccc(Br)cc1)c1cccnc1.Cl.Cl.O` [Zimelidine dihydrochloride monohydrate], the ThS net change is 325.

For `COc1cc(C(=O)NS(=O)(=O)c2ccccc2C)ccc1Cc1cn(C)c2ccc(NC(=O)OC3CCCC3)cc12` [Zafirlukast], under setting [4], the ThS net change came out at 549. In turn, `CC(=O)OCC(=O)[C@@]1(OC(C)=O)[C@@H](C)C[C@H]2[C@@H]3C[C@H](F)C4=CC(=O)C=C[C@]4(C)[C@@]3(F)[C@@H](O)C[C@@]21C` [Diflorasone Diacetate] showed a ThS net change under setting [1] of 407. For the molecule `O=S(=O)(O)c1cc(O)ccc1O` [Ethamsylate], under setting [4], the ThS net change is listed as 455.

Under setting [2], `CNCCCC12CCC(c3ccccc31)c1ccccc12` [Maprotiline hydrochloride] displayed a ThS net change of 370. For `C[C@H]1c2cccc(O)c2C(=O)C2=C(O)[C@]3(O)C(=O)C(C(N)=O)=C(O)[C@@H](N(C)C)[C@@H]3[C@@H](O)[C@@H]21` [Doxycycline hydrochloride], for the setting “flag: p-tau aggregation inhibitor, ThS net change more than 2 SD from mean”, the “PTAI>2SD” value is “*”. Under setting [3], the ThS net change is on record as 174. As for `CC(=O)/N=c1/sc(S(N)(=O)=O)nn1C` [Methazolamide], the ThS net change under setting [2] is listed as 377. Molecule `CC(C)NNC(=O)c1ccncc1.O=P(O)(O)O` [Iproniazide phosphate] gave a ThS net change under setting [1] of 401. `COc1ccccc1OCC(O)COC(N)=O` (stereo not drawn) [Methocarbamol]: the ThS net change under setting [1] was determined as 409.

Molecule `COc1ccc(/C=C/C(=O)Nc2ccccc2C(=O)O)cc1OC` [Tranilast] had a ThS net change under setting [1] of 392. Under setting [2], `Nc1[nH]c(=O)ncc1F` [Flucytosine] gave a ThS net change of 334.

Take `CC(C)NC[C@@H](O)c1ccc(O)c(O)c1.O=C(O)C(O)C(O)C(=O)O` [(+)-Isoproterenol (+)-bitartrate salt]: the ThS net change under setting [2] was determined as 345. As to `COc1ccc2c(c1)c(CC(=O)O)c(C)n2C(=O)c1ccc(Cl)cc1` [Indomethacin], the ThS net change under setting [1] was 386.

Regarding `NCCC[C@H](N)CC(=O)N[C@H]1CNC(=O)[C@H]([C@H]2C[C@H](O)N=C(N)N2)NC(=O)/C(=C/NC(N)=O)NC(=O)[C@H](CO)NC(=O)[C@H](CO)NC1=O.O=S(=O)(O)O` [Viomycin sulfate] (β3hOrn-[Dap]SS[ΔAla(Z-3-ureido)][X1]; lactam 1-C), the ThS net change under setting [4] came to 453.

As to `CN1CCC(=C2c3ccccc3CCc3cccnc32)CC1` [Azatadine maleate], the ThS net change under setting [4] is given as 417.

Under setting [2], `COC1=CC(=O)C[C@@H](C)[C@]12Oc1c(Cl)c(OC)cc(OC)c1C2=O` [Griseofulvin] gave a ThS net change of 337. In the case of `Brc1c(NC2=NCCN2)ccc2nccnc12.O=C(O)C(O)C(O)C(=O)O` [Brimondine L-Tartrate], the ThS net change worked out at 418. `CCN(CC)CCOC(=O)C1(C2CCCCC2)CCCCC1` [Dicyclomine hydrochloride] had a ThS net change under setting [3] of 282. Take `C=CCOC(Cn1ccnc1)c1ccc(Cl)cc1Cl` (stereo not drawn) [Enilconazole]: the ThS net change under setting [4] is recorded as 461. Regarding `CC#C[C@]1(O)CC[C@H]2[C@@H]3CCC4=CC(=O)CCC4=C3[C@@H](c3ccc(N(C)C)cc3)C[C@@]21C` [Mifepristone], the ThS net change under setting [1] came out at 382. In the case of `CC(C)(C(=O)c1cccnc1)c1cccnc1` [Metyrapone], the ThS net change under setting [2] came out at 353. As for `O=C1[C@H]2CCCC[C@H]2C(=O)N1CCCCN1CCN(c2nsc3ccccc23)CC1` [Perospirone], the ThS net change under setting [4] turned out to be 426. On to `COc1ccc2cc([C@H](C)C(=O)O)ccc2c1` [Naproxen], for which the ThS net change under setting [2] came out at 371.

`COc1cc2ncnc(Nc3ccc(F)c(Cl)c3)c2cc1OCCCN1CCOCC1` [Gefitinib] yielded a ThS net change under setting [1] of 395. For the molecule `CN(C)C(=O)C(CCN1CCC(O)(c2ccc(Cl)cc2)CC1)(c1ccccc1)c1ccccc1` [Loperamide hydrochloride], the ThS net change is 326.

Molecule `CC[C@@]1(O)C(=O)OCc2c1cc1n(c2=O)Cc2cc3ccccc3nc2-1` [Camptothecine (S,+)] yielded a ThS net change under setting [5] of 350. Turning to `Cl.Cl.OCCN1CCN(CC/C=C2/c3ccccc3Sc3ccc(Cl)cc32)CC1` [Zuclopenthixol dihydrochloride], under setting [1], the ThS net change is given as 398. Molecule `[H]/N=C(/N)N[C@H]1[C@H](O)[C@@H](O)[C@H](O[C@@H]2O[C@@H](C)[C@](O)(C=O)[C@H]2O[C@@H]2O[C@@H](CO)[C@H](O)[C@@H](O)[C@@H]2NC)[C@@H](N/C(N)=N\[H])[C@@H]1O` [Streptomycin sulfate] came in with a ThS net change under setting [1] of 397. As for `Cc1nccn1CC1CCc2c(c3ccccc3n2C)C1=O.Cl` (stereo not drawn) [Ondansetron Hydrochloride], the ThS net change under setting [1] was 407. Turning to `Cn1c(=O)c2c(ncn2CC2OCCO2)n(C)c1=O` [Doxofylline], the ThS net change under setting [4] was found to be 451. As to `CO[C@@]1(NC(=O)Cc2cccs2)C(=O)N2C(C(=O)O)=C(COC(N)=O)CS[C@@H]21` [Cefoxitin sodium salt], the ThS net change under setting [2] is 354. Under setting [4], `Cc1c(OCC(F)(F)F)ccnc1C[S+]([O-])c1nc2ccccc2[nH]1` (stereo not drawn) [Lansoprazole] displayed a ThS net change of 510. In turn, `C[C@]12CCC3[C@@H](CC[C@@H]4C[C@H](O)CC[C@]34C)[C@@H]1CCC2=O` (stereo partly drawn) [3-alpha-Hydroxy-5-beta-androstan-17-one] showed a ThS net change of 426. Turning to `CO[C@H]1/C=C/O[C@@]2(C)Oc3c(C)c(O)c4c(O)c(c(/C=N/N5CCN(C6CCCC6)CC5)c(O)c4c3C2=O)NC(=O)/C(C)=C\C=C\[C@H](C)[C@H](O)[C@@H](C)[C@@H](O)[C@@H](C)[C@H](OC(C)=O)[C@@H]1C` [Rifapentine], under “flag: p-tau aggregation inhibitor, ThS net change more than 3 SD from mean”, the “PTAI>3SD” value is listed as “*”. This molecule had a ThS net change under setting [3] of 86.

Consider `CC(=O)N[C@@H](CC(=O)N[C@@H](CCC(=O)O)C(=O)O)C(=O)O` [Spaglumic acid], for which, under setting [4], the ThS net change worked out at 425. For the molecule Tropisetron HCl, the ThS net change stood at 428. Under setting [4], `O=C1Nc2ccc(Cl)cc2[C@@](C#CC2CC2)(C(F)(F)F)O1` [Efavirenz] yielded a ThS net change of 436. As to `O.O=C1C(O)=C(O)C(=O)C(O)=C1O` [Tetrahydroxy-1,4-quinone hydrate], the ThS net change under setting [6] is reported as 391.

For `C(=C\c1ccccc1)/CN1CCN(C(c2ccccc2)c2ccccc2)CC1` [Cinnarizine], under setting [2], the ThS net change was 356.

Molecule `CCn1cc(C(=O)O)c(=O)c2cnc(N3CCNCC3)nc21` [Pipemidic acid] registered a ThS net change under setting [2] of 377. The molecule `C#C[C@]1(O)CC[C@H]2[C@@H]3CCC4=Cc5oncc5C[C@]4(C)[C@H]3CC[C@@]21C` [Danazol] had a ThS net change under setting [4] of 495. In the case of `NC(=O)OCCCc1ccccc1` [Phenprobamate], the ThS net change was determined as 323.

Regarding `CN(C)CCOC(C)(c1ccccc1)c1ccccn1` (stereo not drawn) [Doxylamine succinate], the ThS net change under setting [2] stood at 367. As for `Cc1ccc(C(=O)c2cc(O)c(O)c([N+](=O)[O-])c2)cc1` [Tolcapone], the ThS net change under setting [3] is 214. On the same count and under the same terms, the same measure for `Cc1ccccc1C(OCCN(C)C)c1ccccc1` (stereo not drawn) [Orphenadrine hydrochloride]: 295. The molecule `CO[C@@]1(NC(=O)C(C(=O)O)c2ccc(O)cc2)C(=O)N2C(C(=O)O)=C(CSc3nnnn3C)CO[C@@H]21` (stereo partly drawn) [Moxalactam disodium salt] returned a ThS net change under setting [4] of 419. In the case of `CC(NCCc1ccc(O)cc1)C(O)c1ccc(O)cc1` (stereo not drawn) [Ritodrine hydrochloride], under setting [2], the ThS net change came to 363.

In turn, `C=CCc1ccccc1OCC(O)CNC(C)C` (stereo not drawn) [Alprenolol hydrochloride] gave a ThS net change under setting [2] of 376.

Under setting [5], Deoxycorticosterone yielded a ThS net change of 346. The molecule `Cc1cnc(NC(=O)C2=C(O)c3ccccc3S(=O)(=O)N2C)s1` [Meloxicam] yielded a ThS net change under setting [2] of 375. For the molecule `CC(=O)O[C@H]1C(=O)[C@@]2(C)[C@H]([C@H](OC(=O)c3ccccc3)[C@]3(O)C[C@H](OC(=O)[C@H](O)[C@@H](NC(=O)c4ccccc4)c4ccccc4)C(C)=C1C3(C)C)[C@]1(OC(C)=O)CO[C@@H]1C[C@@H]2O` [Paclitaxel], the ThS net change under setting [4] was 437.

Turning to `CCCCCN(CCCCC)C(=O)C(CCC(=O)[O-])NC(=O)c1ccc(Cl)c(Cl)c1.[Na+]` (stereo not drawn) [Lorglumide sodium salt], the ThS net change under setting [4] came out at 520.

Regarding `CC(C)c1ccc2oc3nc(N)c(C(=O)O)cc3c(=O)c2c1` [Amlexanox], the ThS net change under setting [5] was found to be 376. For the molecule `COc1cc2nc(N3CCN(C(=O)C4COc5ccccc5O4)CC3)nc(N)c2cc1OC` (stereo not drawn) [Doxazosin mesylate], the ThS net change under setting [3] worked out at 310. Same read-out and setting: the same measure for `Oc1c(Cl)cc(Cl)c2cccnc12` [Chloroxine]: 288. With `COc1ccc(Cl)cc1C(=O)NCCc1ccc(S(=O)(=O)NC(=O)NC2CCCCC2)cc1` [Glibenclamide], the ThS net change under setting [1] is 391. The molecule `CCOC(=O)c1ccc(OC(=O)CCCCCNC(=N)N)cc1.CS(=O)(=O)O` [Gabexate mesilate] gave a ThS net change under setting [3] of 305.

As for `Cc1ccsc1/C=C/C1=NCCCN1C` [Morantel tartrate], the ThS net change under setting [6] is 398. Consider `CNCCC(Oc1ccc(C(F)(F)F)cc1)c1ccccc1` (stereo not drawn) [Fluoxetine hydrochloride], for which the ThS net change under setting [2] worked out at 370. On the same count and under the same terms, the same measure for `CCC[C@@H]1C[C@@H](C(=O)N[C@@H]([C@H]2O[C@H](SC)[C@H](O)[C@@H](O)[C@H]2O)[C@H](C)Cl)N(C)C1` [Clindamycin hydrochloride]: 344. `CCC(=O)O[C@]1(C(=O)SCF)[C@H](C)C[C@H]2[C@@H]3C[C@H](F)C4=CC(=O)C=C[C@]4(C)[C@@]3(F)[C@@H](O)C[C@@]21C` [Fluticasone propionate] showed a ThS net change under setting [4] of 503.
